In patent US20060035925A1, “SUBSTITUTED 4H-CHROMENES AND ANALOGS AS ACTIVATORS OF CASPASES AND INDUCERS OF APOPTOSIS AND THE USE THEREOF” (Cytovia, Inc., priority 1999, published 2006):
Like-named read-outs stand apart in the source and are kept apart here.

Legend:
[1] = test system: Human breast cancer cell line T-47D; test: Caspase cascade activation assay (N-(Ac-DEVD)-N'-ethoxycarbonyl-R110 fluorogenic substrate) in T-47D cells; type: cell-based; conditions: for Caspase activity (Ratio) T-47D: 24 h incubation with compound, ratio of net RFU (T=3 h) of test compound to control
Procedure: (§1) Human breast cancer cell lines T-47D and ZR-75-1 were grown according to media component mixtures designated by American Type Culture Collection +10% FCS (Invitrogen Corporation), in a 5% CO2-95% humidity incubator at 37° C. T-47D and ZR-75-1 cells were maintained at a cell density between 30 and 80% confluency at a cell density of 0.1 to 0.6×10^6 cells/ml. Cells were harvested at 600×g and resuspended at 0.65×10^6 cells/mL into appropriate media +10% FCS. An aliquot of 45 μl of cells was added to a well of a 96-well microtiter plate containing 5 μl of a 10% DMSO in RPMI-1640 media solution containing 0.16 to 10 μM of 2-amino-3-cyano-4-(3-bromo-4,5-dimethoxyphenyl)-4H-indolo[7,6-b]pyran (Example 42) or other test compound (0.016 to 1 μM final). An aliquot of 45 μl of cells was added to a well of a 96-well microtiter plate containing 5 μl of a 10% DMSO in RPMI-1640 media solution without test compound as the control sample. The samples were mixed by agitation and then incubated at 37° C. for 24 h in a 5% CO2-95% humidity incubator. After incubation, the samples were removed from the incubator and 50 μl of a solution containing 20 μM of N-(Ac-DEVD)-N′-ethoxycarbonyl-R110 (SEQ ID NO:1) fluorogenic substrate (Cytovia, Inc.; WO99/18856), 20% sucrose (Sigma), 20 mM DTT (Sigma), 200 mM NaCl (Sigma), 40 mM Na PIPES buffer pH 7.2 (Sigma), and 500 μg/ml lysolecithin (Calbiochem) was added. The samples were mixed by agitation and incubated at room temperature. Using a fluorescent plate reader (Model 1420 Wallac Instruments), an initial reading (T=0) was made approximately 1-2 min after addition of the substrate solution, employing excitation at 485 nm and emission at 530 nm, to determine the background fluorescence of the control sample. After the 3 h incubation, the samples were read for fluorescence as above (T=3 h).
(§2) The Relative Fluorescence Unit values (RFU) were used to calculate the sample readings as follows: RFU(T=3h)−Control RFU(T=0)=Net RFU(T=3h)
(§3) The activity of caspase cascade activation was determined by the ratio of the net RFU value for 2-amino-3-cyano-4-(3-bromo-4,5-dimethoxyphenyl)-4H-indolo[7,6-b]pyran or other test compound to that of control samples. The EC50 (nM) was determined by a sigmoidal dose-response calculation (Prism 2.0, GraphPad Software Inc.).

[2] = test system: Human breast cancer cell line ZR-75-1; test: Caspase cascade activation assay (N-(Ac-DEVD)-N'-ethoxycarbonyl-R110 fluorogenic substrate) in ZR-75-1 cells; type: cell-based; conditions: for Caspase activity (Ratio) ZR-75-1: 24 h incubation with compound, ratio of net RFU (T=3 h) of test compound to control
Procedure: as §1, §2, §3

[3] = 24 h incubation, sigmoidal dose-response, read-out: Caspase potency EC50 (nM) T-47D
[4] = ZR-75-1 cells, 24 h incubation, sigmoidal dose-response, read-out: Caspase potency EC50 (nM) ZR-75-1
[5] = Homo sapiens, T47D, additional compounds, Table II, read-out: Caspase potency EC50 (nM) T-47D, Table II
[6] = Homo sapiens, ZR-75-1, ZR-75-1 cells, additional compounds, Table II, read-out: Caspase potency EC50 (nM) ZR-75-1, Table II
[7] = ZR-75-1 cells, additional compounds, Table II
[8] = Homo sapiens, T47D, 24 h, 24 h incubation, sigmoidal dose-response, read-out: Caspase potency EC50 (nM) T-47D
[9] = Homo sapiens, ZR-75-1, 24 h, ZR-75-1 cells, 24 h incubation, sigmoidal dose-response, read-out: Caspase potency EC50 (nM) ZR-75-1

| Molecule | Caspase activity (Ratio) T-47D [1] | Caspase activity (Ratio) ZR-75-1 ([2]; ZR-75-1 cells) | EC50 [1, 8] | EC50 [2, 9] | also measured |
| --- | --- | --- | --- | --- | --- |
| 2-Amino-3-cyano-7-methoxy-4-(2,4-dimethoxypyrimidinyl)-4H-chromene [Example 27] | <2 | <2 |  |  | EC50 [1, 3]: > 10000 nM; EC50 [2, 4]: > 10000 nM |
| 2-Amino-3-ethoxycarboxyl-4-(3-bromo-4,5-dimethoxy-phenyl)-4H-indolo[4,5-b]pyran [Example 72] | 1.2 | 3.6 |  |  | EC50 [1, 3]: > 1000 nM; EC50 [2, 4]: 567 nM |
| 2-Amino-4-(3-bromo-4,5-dimethoxyphenyl)-3-cyano-9-methyl-4H-imidazo[4,5-b]chromene [Example 75] | 6.3 | 3.4 |  |  | EC50 [1, 3]: 345 nM; EC50 [2, 4]: 146 nM |
| COc1cc(C2C(C#N)=C(N)Oc3cc(N)ccc32)cc(OC)c1OC (stereo not drawn) [2,7-Diamino-3-cyano-4-(3,4,5-trimethoxyphenyl)-4H-chromene] |  |  |  |  | EC50 [1, 5]: 30 nM; Caspase activity (Ratio) T-47D, Table II ([1]; additional compounds, Table II): 4.2; EC50 [2, 6]: 15 nM; Caspase activity (Ratio) ZR-75-1, Table II [2, 7]: 3.5 |
| N#CC1=C(N)Oc2cc(N)ccc2C1c1cccc(I)c1 (stereo not drawn) [2,7-Diamino-3-cyano-4-(3-iodophenyl)-4H-chromene] |  |  |  |  | EC50 [1, 5]: 33 nM; Caspase activity (Ratio) T-47D, Table II ([1]; additional compounds, Table II): 4.8; EC50 [2, 6]: 18 nM; Caspase activity (Ratio) ZR-75-1, Table II [2, 7]: 5.1 |
| N#CC1=C(N)Oc2cc(N)ccc2C1c1ccccc1 (stereo not drawn) [2,7-Diamino-3-cyano-4-phenyl-4H-chromene] |  |  |  |  | EC50 [1, 5]: 5630 nM; Caspase activity (Ratio) T-47D, Table II ([1]; additional compounds, Table II): 6.3; EC50 [2, 6]: 2880 nM; Caspase activity (Ratio) ZR-75-1, Table II [2, 7]: 8.6 |
| CCC(C)C(=O)Nc1ccc2c(c1)OC(N)=C(C#N)C2c1cc(Br)c(OC)c(OC)c1 (stereo not drawn) [2-Amino-3-cyano-7-(2-methylbutanoylamino)-4-(3-bromo-4,5-dimethoxyphenyl)-4H-chromene] |  |  |  |  | Caspase activity (Ratio) T-47D, Table II ([1]; additional compounds, Table II): Inactive; Caspase potency EC50 (nM) T-47D, Table II ([1]; additional compounds, Table II): Inactive; Caspase activity (Ratio) ZR-75-1, Table II [2, 7]: Inactive; Caspase potency EC50 (nM) ZR-75-1, Table II [2, 7]: Inactive |
| COc1cc(C2C(C#N)=C(N)Oc3cc(O)ccc32)cc(OC)c1OC (stereo not drawn) [2-Amino-3-cyano-7-hydroxy-4-(3,4,5-trimethoxyphenyl)-4H-chromene] |  |  |  |  | EC50 [1, 5]: 456 nM; Caspase activity (Ratio) T-47D, Table II ([1]; additional compounds, Table II): 7.3; EC50 [2, 6]: 208 nM; Caspase activity (Ratio) ZR-75-1, Table II [2, 7]: 10.3 |
| COc1cc(C2C(C#N)=C(N)Oc3cc(O)ccc32)cc(Br)c1OC (stereo not drawn) [Example 1, 2-Amino-3-cyano-7-hydroxy-4-(3-bromo-4,5-dimethoxyphenyl)-4H-chromene] | 5.1 | 10.8 | 153 nM | 94 nM |  |
| CCNc1ccc2c(c1)OC(N)=C(C#N)C2c1cc(Br)c(OC)c(OC)c1 (stereo not drawn) [Example 2A, 2-Amino-3-cyano-7-ethylamino-4-(3-bromo-4,5-dimethoxyphenyl)-4H-chromene] | 4.0 | 4.1 | 72 nM | 14 nM |  |
| N#CC1=C(N)Oc2cc(O)ccc2C1c1cccc(C#N)c1 (stereo not drawn) [Example 2B, 2-Amino-3-cyano-7-hydroxy-4-(3-cyanophenyl)-4H-chromene] | 1.2 | 1.9 | > 10000 nM | > 10000 nM |  |
| COc1cc(C2C(C#N)=C(N)Oc3c2ccc(O)c3O)cc(Br)c1OC (stereo not drawn) [Example 2C, 2-Amino-3-cyano-7,8-dihydroxy-4-(3-bromo-4,5-dimethoxyphenyl)-4H-chromene] | 1.1 | 0.9 | > 10000 nM | > 10000 nM |  |
| N#CC1=C(N)Oc2cc(N)ccc2C1c1cc(Cl)cc(Cl)c1 (stereo not drawn) [Example 2D, 2-Amino-3-cyano-7-amino-4-(3,5-dichlorophenyl)-4H-chromene] | 4.4 | 4.4 | 78 nM | 50 nM |  |
| COc1ccc2c(c1)OC(N)=C(C#N)C2c1cc(Cl)cc(Cl)c1 (stereo not drawn) [Example 2E, 2-Amino-3-cyano-7-methoxy-4-(3,5-dichlorophenyl)-4H-chromene] | 4.1 | 4.4 | 39 nM | 29 nM |  |
| N#CC1=C(N)OC2C3=CC=NC3=CC=C2C1c1cc(Cl)cc(Cl)c1 (stereo not drawn) [Example 2F, 2-Amino-3-cyano-4-(3,5-dichlorophenyl)-4H-indolo[4,5-b]pyran] | 4.7 | 4.4 | 44 nM | 26 nM |  |
| N#CC1=C(N)OC2C3=CC=NC3=CC=C2C1c1cccc(Cl)c1 (stereo not drawn) [Example 2G, 2-Amino-3-cyano-4-(3-chlorophenyl)-4H-indolo[4,5-b]pyran] | 5.6 | 4.5 | 56 nM | 25 nM |  |
| COc1cc(C2C(C#N)=C(N)Oc3c2ccc(N)c3C)cc(Br)c1OC (stereo not drawn) [Example 2H, 2-Amino-3-cyano-7-amino-8-methyl-4-(3-bromo-4,5-dimethoxyphenyl)-4H-chromene] | 5.5 | 3.9 | 29 nM | 16 nM |  |
| COc1cc(C2C(C#N)=C(N)Oc3c2ccc(O)c3N)cc(Br)c1OC (stereo not drawn) [Example 2I, 2-Amino-3-cyano-7-hydroxy-8-amino-4-(3-bromo-4,5-dimethoxyphenyl)-4H-chromene] | 6.2 |  | 50.4 nM |  |  |
| COc1ccc2c(c1)OC(N)=C(C#N)C2c1cc(F)cc(F)c1 (stereo not drawn) [Example 2J, 2-Amino-3-cyano-7-methoxy-4-(3,5-difluorophenyl)-4H-chromene] | 5.0 | 7.4 | 34 nM | 21 nM |  |
| N#CC1=C(N)OC2C3=CC=NC3=CC=C2C1c1cc(F)cc(F)c1 (stereo not drawn) [Example 2K, 2-Amino-3-cyano-4-(3,5-difluorophenyl)-4H-indolo[4,5-b]pyran] | 5.6 | 6.9 | 37 nM | 16 nM |  |
| N#CC1=C(N)OC2C3=CC=NC3=CC=C2C1c1cccc(F)c1 (stereo not drawn) [Example 2L, 2-Amino-3-cyano-4-(3-fluorophenyl)-4H-indolo[4,5-b]pyran] | 4.5 | 7.4 | 63 nM | 41 nM |  |
| N#CC1=C(N)Oc2cc(N)ccc2C1c1cccc(F)c1 (stereo not drawn) [Example 2M, 2-Amino-3-cyano-7-amino-4-(3-fluorophenyl)-4H-chromene] | 5.8 | 6.9 | 1390 nM | 786 nM |  |
| COc1ccc2c(c1)OC(N)=C(C#N)C2c1cccc(F)c1 (stereo not drawn) [Example 2N, 2-Amino-3-cyano-7-methoxy-4-(3-fluorophenyl)-4H-chromene] | 4.2 | 6.8 | 57 nM | 47 nM |  |
| N#CC1=C(N)Oc2cc(N)ccc2C1c1cc(F)cc(F)c1 (stereo not drawn) [Example 2O, 2-Amino-3-cyano-7-amino-4-(3,5-difluorophenyl)-4H-chromene] | 6.4 | 7.1 | 323 nM | 193 nM |  |
| COc1ccc2c(c1)OC(N)=C(C#N)C2c1cc(OC)c(OC)c(OC)c1 (stereo not drawn) [Example 3, 2-Amino-3-cyano-7-methoxy-4-(3,4,5-trimethoxyphenyl)-4H-chromene] | 8.4 | 4.5 | 29 nM | 16 nM |  |
| COc1cccc(C2C(C#N)=C(N)Oc3cc(OC)ccc32)c1 (stereo not drawn) [Example 4, 2-Amino-3-cyano-7-methoxy-4-(3-methoxyphenyl)-4H-chromene] | 8.1 | 5.6 | 37 nM | 33 nM |  |
